Laboratory results: patent publication US20060263802A1 (priority 2003, published 2006)

Experiments:
Format in all cases: binding
[1] = tested on: human monoclonal antibody CRJB
[2] = tested on: human monoclonal antibody CR57
[3] = tested on: human monoclonal antibody CRJA
[4] = tested on: human monoclonal antibody CRJB; remark: listed apart in the source
[5] = tested on: human monoclonal antibody CR57; remark: listed apart in the source
[6] = tested on: human monoclonal antibody CRJA; remark: listed apart in the source

| Sequence | Binding of CRJB to linear peptide (PEPSCAN-ELISA signal) [1] | Binding of CR57 to linear peptide (PEPSCAN-ELISA signal) [2] | Binding of CRJA to linear peptide (PEPSCAN-ELISA signal) [3] | Binding of CRJB (10 μg/ml) to looped/cyclic peptide (PEPSCAN-ELISA) [4] | Binding of CR57 (10 μg/ml) to looped/cyclic peptide (PEPSCAN-ELISA) [5] | Binding of CRJA (10 μg/ml) to looped/cyclic peptide (PEPSCAN-ELISA) [6] | Binding of CRJB (10 μg/ml) to looped/cyclic peptide (PEPSCAN-ELISA signal) [4] | Binding of CR57 (10 μg/ml) to looped/cyclic peptide (PEPSCAN-ELISA signal) [5] | Binding of CRJA (10 μg/ml) to looped/cyclic peptide (PEPSCAN-ELISA signal) [6] | binding of antibody CR57 to linear peptide (PEPSCAN OD) [2] | Binding of human monoclonal antibody CRJB to linear peptide (PEPSCAN-ELISA signal) [1] | Binding of human monoclonal antibody CR57 to linear peptide (PEPSCAN-ELISA signal) [2] | Binding of human monoclonal antibody CRJA to linear peptide (PEPSCAN-ELISA signal) [3] | Binding of CRJB to looped/cyclic peptide (PEPSCAN-ELISA signal) [4] | Binding of CR57 to looped/cyclic peptide (PEPSCAN-ELISA signal) [5] | Binding of CRJA to looped/cyclic peptide (PEPSCAN-ELISA signal) [6] |
| --- | --- | --- | --- | --- | --- | --- | --- | --- | --- | --- | --- | --- | --- | --- | --- | --- |
| LDALESIMTTKSVSF | 116 | 97 | 92 | 106 | 108 | 90 | – | – | – | – | – | – | – | – | – | – |
| LDKLGPWSPIDIHHL | 99 | 55 | 59 | – | – | – | 65 | 93 | 82 | – | – | – | – | – | – | – |
| LDPYDRSLHSRVFPS | 142 | 99 | 113 | – | – | – | 83 | 88 | 98 | – | – | – | – | – | – | – |
| LESIMTTKSVSFRRL | 114 | 48 | 94 | 78 | 94 | 91 | – | – | – | – | – | – | – | – | – | – |
| LESSVIPLVHPLADP | 128 | 90 | 110 | 128 | 120 | 114 | – | – | – | – | – | – | – | – | – | – |
| LGLRLMDGTWVAMQT | 115 | 102 | 113 | 108 | 92 | 97 | – | – | – | – | – | – | – | – | – | – |
| LGMSCDIFTNSRGKR | 110 | 76 | 100 | – | – | – | 105 | 102 | 104 | – | – | – | – | – | – | – |
| LGPDGNVLIPEMQSS | 134 | 100 | 99 | 94 | 150 | 104 | – | – | – | – | – | – | – | – | – | – |
| LGPWSPIDIHHLSCP | 112 | 69 | 84 | – | – | – | 83 | 88 | 72 | – | – | – | – | – | – | – |
| LHDFRSDEIEHLVVE | 115 | 93 | 110 | 65 | 40 | 90 | – | – | – | – | – | – | – | – | – | – |
| LHNPYPDYRWLRTVK | 106 | 79 | 86 | – | – | – | 93 | 99 | 93 | – | – | – | – | – | – | – |
| LHSRVFPSGKCSGVA | 114 | 78 | 134 | – | – | – | 111 | 110 | 117 | – | – | – | – | – | – | – |
| LIPEMQSSLLQQHME | 111 | 89 | 107 | 85 | 98 | 91 | – | – | – | – | – | – | – | – | – | – |
| LKGACKLKLCGVLGL | 90 | 340 | 100 | 76 | 105 | 87 | – | – | – | bound | – | – | – | – | – | – |
| LKLCGVLGLRLMDGT | 145 | 918 | 100 | 72 | 89 | 90 | – | – | – | bound | – | – | – | – | – | – |
| LKVGYILAIKMNGFT | 112 | 78 | 68 | – | – | – | 74 | 58 | 76 | – | – | – | – | – | – | – |
| LLESSVIPLVHPLAD | 117 | 72 | 92 | 76 | 93 | 91 | – | – | – | – | – | – | – | – | – | – |
| LLQQHMELLESSVIP | 111 | 78 | 80 | 129 | 123 | 165 | – | – | – | – | – | – | – | – | – | – |
| LMDGTWVAMQTSNET | 106 | 96 | 102 | 76 | 106 | 92 | – | – | – | – | – | – | – | – | – | – |
| LMEADAHYKSVRTWN | 107 | 73 | 46 | 72 | 41 | 43 | – | – | – | – | – | – | – | – | – | – |
| LPDVHNQVSGVDLGL | – | – | – | – | – | – | – | – | – | – | 154 | 104 | 97 | 118 | 116 | 98 |
| LPSKGCLRVGGRCHP | 119 | 77 | 58 | 85 | 80 | 52 | – | – | – | – | – | – | – | – | – | – |
| LQQHMELLESSVIPL | 134 | 106 | 91 | 93 | 136 | 108 | – | – | – | – | – | – | – | – | – | – |
| LRKLVPGFGKAYTIF | 118 | 83 | 116 | 105 | 92 | 87 | – | – | – | – | – | – | – | – | – | – |
| LRLMDGTWVAMQTSN | 114 | 103 | 96 | 72 | 98 | 92 | – | – | – | – | – | – | – | – | – | – |
| LRTVKTTKESLVIIS | 104 | 65 | 83 | – | – | – | 68 | 89 | 86 | – | – | – | – | – | – | – |
| LRVGGRCHPHVNGVF | 143 | 104 | 104 | 105 | 99 | 96 | – | – | – | – | – | – | – | – | – | – |
| LSCPNNLVVEDEGCT | 117 | 69 | 90 | – | – | – | 74 | 72 | 97 | – | – | – | – | – | – | – |
| LSGFSYMELKVGYIL | 132 | 71 | 82 | – | – | – | 74 | 72 | 83 | – | – | – | – | – | – | – |
| LSHLRKLVPGFGKAY | 139 | 96 | 93 | 123 | 121 | 93 | – | – | – | – | – | – | – | – | – | – |
